Values of other authors in PubChem BioAssay AID1259409 (Chemical Carcinogenesis Research Information System (CCRIS), 2018).

Test system: rodent chemically induced tumor inhibition, incidence and multiplicity
Experiment: CCRIS tumor inhibitor studies
Details: Dose [Inhibitor]: 0

Structure (SMILES): CC(=O)Oc1c(C)c(C)c2c(c1C)CC[C@@](C)(CCC[C@H](C)CCC[C@H](C)CCCC(C)C)O2
- tumour outcome (control, treated, inhibition, significance) (Carcinogen: 7,12-DIMETHYLBENZ[A]ANTHRACENE, 57-97-6, 0.2% IN DIET BEGINNING 1 WK PRIOR TO CARCINOGEN DOSE AND CONTINUING FOR 12 WK (STUDY DURATION: 13 WK), Route [Inhibitor]: ORAL, Species: RAT, Strain/Sex: SPRAGUE-DAWLEY/FEMALE, Target Tissue: Type of Lesion: MAMMARY GLAND: TUMORS, Dose [Carcinogen]: 10 MG IN 1 ML CORN OIL ONCE, Promoter: NONE USED): 100%, 80%, 20%, p<0.05
- tumour outcome (control, treated, inhibition, significance) (Carcinogen: 7,12-DIMETHYLBENZ[A]ANTHRACENE, 57-97-6, 10 UMOL 1/WK 5 MIN PRIOR TO EACH PROMOTER DOSE BEGINNING 2 WK POST CARCINOGEN DOSE AND CONTINUING FOR 29 WK (STUDY DU, Route [Inhibitor]: DERMAL, Species: MOUSE, Strain/Sex: SENCAR/FEMALE, Target Tissue: Type of Lesion: SKIN: PAPILLOMA, Dose [Carcinogen]: 25 NMOL ONCE, Promoter: CHRYSAROBIN, 491-58-7): 100%, 93%, 7%, not significant
- tumour outcome (control, treated, inhibition, significance) (Carcinogen: 7,12-DIMETHYLBENZ[A]ANTHRACENE, 57-97-6, 40 UMOL 1/WK 5 MIN PRIOR TO EACH PROMOTER DOSE BEGINNING 2 WK PRIOR TO CARCINOGEN DOSE AND CONTINUING FOR 29 WK (STUD, Route [Inhibitor]: DERMAL, Species: MOUSE, Strain/Sex: SENCAR/FEMALE, Target Tissue: Type of Lesion: SKIN: PAPILLOMA, Dose [Carcinogen]: 25 NMOL ONCE, Promoter: CHRYSAROBIN, 491-58-7): 100%, 68%, 32%, not calculated
- tumour outcome (control, treated, inhibition, significance) (Carcinogen: ETHYLNITROSOUREA, 759-73-9, 600 MG/KG IN 1:10 (VOLUME: VOLUME) SUNFLOWER OIL IN DIET 5 D/WK FOR 18 MO (STUDY DURATION: 18 MO), Route [Inhibitor]: ORAL, Species: RAT, Strain/Sex: ALBINO/MALE,FEMALE, Target Tissue: Type of Lesion: BRAIN: GLIOMA OR ASTROCYTOMA, Dose [Carcinogen]: 7.5 MG/KG IN SALINE BY INTRAVENOUS INJECTION ONCE 21 D AFTER CONCEPTION): 22/54 (41%), 19/50 (38%), 7%, not calculated
- tumour outcome (control, treated, inhibition, significance) (Carcinogen: ETHYLNITROSOUREA, 759-73-9, 600 MG/KG IN 1:10 (VOLUME: VOLUME) SUNFLOWER OIL IN DIET 5 D/WK FOR 18 MO (STUDY DURATION: 18 MO), Route [Inhibitor]: ORAL, Species: RAT, Strain/Sex: ALBINO/MALE,FEMALE, Target Tissue: Type of Lesion: NERVOUS SYSTEM: SCHWANNOMA, Dose [Carcinogen]: 7.5 MG/KG IN SALINE BY INTRAVENOUS INJECTION ONCE 21 D AFTER CONCEPTION): 7/54 (13%), 5/50 (10%) 23%, not calculated
- tumour outcome (control, treated, inhibition, significance) (Carcinogen: ETHYLNITROSOUREA, 759-73-9, 600 MG/KG IN 1:10 (VOLUME: VOLUME) SUNFLOWER OIL IN DIET 5 D/WK FOR 18 MO (STUDY DURATION: 18 MO), Route [Inhibitor]: ORAL, Species: RAT, Strain/Sex: ALBINO/MALE,FEMALE, Target Tissue: Type of Lesion: SPINAL CORD: TUMOR, Dose [Carcinogen]: 7.5 MG/KG IN SALINE BY INTRAVENOUS INJECTION ONCE 21 D AFTER CONCEPTION): 3/54 (6%), 6/50 (12%), -100%, not calculated

Structure (SMILES): CCCCCCCCCCCCC/C=C/[C@@H](O)[C@@H](N)CO
- tumour outcome (control, treated, inhibition, significance) (Carcinogen: 7,12-DIMETHYLBENZ[A]ANTHRACENE, 57-97-6, 0.01 UMOL IN 0.2 ML ACETONE 2/WK FOR 15 WK APPLIED 30 MIN PRIOR TO EACH PROMOTER DOSE (STUDY DURATION: 50 WK), Route [Inhibitor]: DERMAL, Species: MOUSE, Strain/Sex: SENCAR/FEMALE, Target Tissue: Type of Lesion: SKIN: CARCINOMA, Dose [Carcinogen]: 10 NMOL ONCE, Promoter: 12-O-TETRADECANOYLPHORBOL-13-ACETATE, 16561-29-8): 87%, 77%, 11%, not significant
- tumour outcome (control, treated, inhibition, significance) (Carcinogen: 7,12-DIMETHYLBENZ[A]ANTHRACENE, 57-97-6, 0.01 UMOL IN 0.2 ML ACETONE 2/WK FOR 15 WK APPLIED 30 MIN PRIOR TO EACH PROMOTER DOSE (STUDY DURATION: 50 WK), Route [Inhibitor]: DERMAL, Species: MOUSE, Strain/Sex: SENCAR/FEMALE, Target Tissue: Type of Lesion: SKIN: PAPILLOMA, Dose [Carcinogen]: 10 NMOL ONCE, Promoter: 12-O-TETRADECANOYLPHORBOL-13-ACETATE, 16561-29-8): 94%, 88%, 6%, not significant
- tumour outcome (control, treated, inhibition, significance) (Carcinogen: 7,12-DIMETHYLBENZ[A]ANTHRACENE, 57-97-6, 0.05 UMOL IN 0.2 ML ACETONE 2/WK FOR 15 WK APPLIED 30 MIN PRIOR TO EACH PROMOTER DOSE (STUDY DURATION: 50 WK), Route [Inhibitor]: DERMAL, Species: MOUSE, Strain/Sex: SENCAR/FEMALE, Target Tissue: Type of Lesion: SKIN: CARCINOMA, Dose [Carcinogen]: 10 NMOL ONCE, Promoter: 12-O-TETRADECANOYLPHORBOL-13-ACETATE, 16561-29-8): 87%, 82%, 6%, not significant
- tumour outcome (control, treated, inhibition, significance) (Carcinogen: 7,12-DIMETHYLBENZ[A]ANTHRACENE, 57-97-6, 0.05 UMOL IN 0.2 ML ACETONE 2/WK FOR 15 WK APPLIED 30 MIN PRIOR TO EACH PROMOTER DOSE (STUDY DURATION: 50 WK), Route [Inhibitor]: DERMAL, Species: MOUSE, Strain/Sex: SENCAR/FEMALE, Target Tissue: Type of Lesion: SKIN: PAPILLOMA, Dose [Carcinogen]: 10 NMOL ONCE, Promoter: 12-O-TETRADECANOYLPHORBOL-13-ACETATE, 16561-29-8): 94%, 91%, 3%, not significant
- tumour outcome (control, treated, inhibition, significance) (Carcinogen: 7,12-DIMETHYLBENZ[A]ANTHRACENE, 57-97-6, 0.5 UMOL IN 0.2 ML ACETONE 2/WK FOR 15 WK APPLIED 30 MIN PRIOR TO EACH PROMOTER DOSE (STUDY DURATION: 50 WK), Route [Inhibitor]: DERMAL, Species: MOUSE, Strain/Sex: SENCAR/FEMALE, Target Tissue: Type of Lesion: SKIN: CARCINOMA, Dose [Carcinogen]: 10 NMOL ONCE, Promoter: 12-O-TETRADECANOYLPHORBOL-13-ACETATE, 16561-29-8): 87%, 84%, 3%, not significant
- tumour outcome (control, treated, inhibition, significance) (Carcinogen: 7,12-DIMETHYLBENZ[A]ANTHRACENE, 57-97-6, 0.5 UMOL IN 0.2 ML ACETONE 2/WK FOR 15 WK APPLIED 30 MIN PRIOR TO EACH PROMOTER DOSE (STUDY DURATION: 50 WK), Route [Inhibitor]: DERMAL, Species: MOUSE, Strain/Sex: SENCAR/FEMALE, Target Tissue: Type of Lesion: SKIN: PAPILLOMA, Dose [Carcinogen]: 10 NMOL ONCE, Promoter: 12-O-TETRADECANOYLPHORBOL-13-ACETATE, 16561-29-8): 94%, 85%, 10%, not significant
- tumour outcome (control, treated, inhibition, significance) (Carcinogen: 7,12-DIMETHYLBENZ[A]ANTHRACENE, 57-97-6, 10 UMOL IN 0.2 ML ACETONE 2/WK FOR 20 WK APPLIED 30 MIN PRIOR TO EACH PROMOTER DOSE (STUDY DURATION: 50 WK), Route [Inhibitor]: DERMAL, Species: MOUSE, Strain/Sex: SENCAR/FEMALE, Target Tissue: Type of Lesion: SKIN: CARCINOMA, Dose [Carcinogen]: 10 NMOL ONCE, Promoter: 12-O-TETRADECANOYLPHORBOL-13-ACETATE, 16561-29-8): 47%, 56%, -19%, not significant
- tumour outcome (control, treated, inhibition, significance) (Carcinogen: 7,12-DIMETHYLBENZ[A]ANTHRACENE, 57-97-6, 10 UMOL IN 0.2 ML ACETONE 2/WK FOR 20 WK APPLIED 30 MIN PRIOR TO EACH PROMOTER DOSE (STUDY DURATION: 50 WK), Route [Inhibitor]: DERMAL, Species: MOUSE, Strain/Sex: SENCAR/FEMALE, Target Tissue: Type of Lesion: SKIN: PAPILLOMA, Dose [Carcinogen]: 10 NMOL ONCE, Promoter: 12-O-TETRADECANOYLPHORBOL-13-ACETATE, 16561-29-8): 93%, 96%, -3%, not significant
